Patent publication US10722471B2, “Galenic formulations of organic compounds” (Novartis AG, priority 2016, dated 2020)

Assay: Relative bioavailability and food effect of 200 mg LCZ696 mini-tablets vs 200 mg FMI tablet; randomized, open-label, single dose, crossover study;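 also: crossover design with one dose per period, healthy volunteers, 40 enrolled and 39 completing the study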
Settings: label = analyte; for Cmax, geometric mean ratio, Mini tablets vs FMI tablet (Fasting) / AUCinf, geometric mean ratio, Mini tablets vs FMI tablet (Fasting) / AUClast, geometric mean ratio, Mini tablets vs FMI tablet (Fasting) / Cmax, geometric mean ratio, Pudding + High fat meal vs Pudding (Mini tablets) / AUCinf, geometric mean ratio, Pudding + High fat meal vs Pudding (Mini tablets) / AUClast, geometric mean ratio, Pudding + High fat meal vs Pudding (Mini tablets) / Cmax, geometric mean ratio, Pudding vs fasting (Mini tablets) / AUCinf, geometric mean ratio, Pudding vs fasting (Mini tablets) / AUClast, geometric mean ratio, Pudding vs fasting (Mini tablets): LCZ696 200 mg single oral dose, healthy subjects; for Cmax, geometric mean ratio, Mini tablets vs FMI tablet (Fasting) / AUCinf, geometric mean ratio, Mini tablets vs FMI tablet (Fasting) / AUClast, geometric mean ratio, Mini tablets vs FMI tablet (Fasting): test minitablets / reference FMI tablet; for Cmax, geometric mean ratio, Mini tablets vs FMI tablet (Fasting) / Cmax, geometric mean ratio, Pudding + High fat meal vs Pudding (Mini tablets) / Cmax, geometric mean ratio, Pudding vs fasting (Mini tablets): parameter head prints ng/ml; for AUCinf, geometric mean ratio, Mini tablets vs FMI tablet (Fasting) / AUClast, geometric mean ratio, Mini tablets vs FMI tablet (Fasting) / AUCinf, geometric mean ratio, Pudding + High fat meal vs Pudding (Mini tablets) / AUClast, geometric mean ratio, Pudding + High fat meal vs Pudding (Mini tablets) / AUCinf, geometric mean ratio, Pudding vs fasting (Mini tablets) / AUClast, geometric mean ratio, Pudding vs fasting (Mini tablets): parameter head prints ng·h/ml; for Cmax, geometric mean ratio, Pudding + High fat meal vs Pudding (Mini tablets) / AUCinf, geometric mean ratio, Pudding + High fat meal vs Pudding (Mini tablets) / AUClast, geometric mean ratio, Pudding + High fat meal vs Pudding (Mini tablets): test minitablets on pudding + high fat meal / reference minitablets with pudding; for Cmax, geometric mean ratio, Pudding vs fasting (Mini tablets) / AUCinf, geometric mean ratio, Pudding vs fasting (Mini tablets) / AUClast, geometric mean ratio, Pudding vs fasting (Mini tablets): test minitablets with pudding / reference minitablets; for decrease of Cmax with a high fat meal: single dose LCZ696 200 mg mini-tablets sprinkled on pudding; for extent of absorption (AUCs) with a high fat meal: LCZ696 200 mg mini-tablets sprinkled on pudding

Cmax, geometric mean ratio, Mini tablets vs FMI tablet (Fasting) | AUCinf, geometric mean ratio, Mini tablets vs FMI tablet (Fasting) | AUClast, geometric mean ratio, Mini tablets vs FMI tablet (Fasting) | Cmax, geometric mean ratio, Pudding + High fat meal vs Pudding (Mini tablets) | AUCinf, geometric mean ratio, Pudding + High fat meal vs Pudding (Mini tablets) | AUClast, geometric mean ratio, Pudding + High fat meal vs Pudding (Mini tablets) | Cmax, geometric mean ratio, Pudding vs fasting (Mini tablets) | AUCinf, geometric mean ratio, Pudding vs fasting (Mini tablets) | AUClast, geometric mean ratio, Pudding vs fasting (Mini tablets) | decrease of Cmax with a high fat meal | SMILES | extent of absorption (AUCs) with a high fat meal
1.09 | 1.11 | 1.11 | 0.43 | 0.6 | 0.59 | 1.02 | 1.02 | 1.04 | 57% | CCCCC(=O)N(Cc1ccc(-c2ccccc2-c2nnn[nH]2)cc1)[C@H](C(=O)O)C(C)C [Valsartan, S—N-valeryl-N-{[2′-(1H-tetrazole-5-yl)-biphenyl-4-yl]-methyl}-valine] | 
0.94 | 0.96 | 0.96 | 0.4 | 1.01 | 1.00 | 1.00 | 1.04 | 1.04 | 60% | CCOC(=O)[C@H](C)C[C@@H](Cc1ccc(-c2ccccc2)cc1)NC(=O)CCC(=O)O [Sacubitril, (2R,4S)-5-biphenyl-4-yl-4-(3-carboxy-propionylamino)-2-methyl-pentanoic acid ethyl ester] | comparable

SMILES | Cmax, geometric mean ratio, Mini tablets vs FMI tablet (Fasting) | AUCinf, geometric mean ratio, Mini tablets vs FMI tablet (Fasting) | AUClast, geometric mean ratio, Mini tablets vs FMI tablet (Fasting) | Cmax, geometric mean ratio, Pudding + High fat meal vs Pudding (Mini tablets) | AUCinf, geometric mean ratio, Pudding + High fat meal vs Pudding (Mini tablets) | AUClast, geometric mean ratio, Pudding + High fat meal vs Pudding (Mini tablets) | Cmax, geometric mean ratio, Pudding vs fasting (Mini tablets) | AUCinf, geometric mean ratio, Pudding vs fasting (Mini tablets) | AUClast, geometric mean ratio, Pudding vs fasting (Mini tablets) | decrease of Cmax with a high fat meal | extent of absorption (AUCs) with a high fat meal
C[C@H](C[C@@H](Cc1ccc(-c2ccccc2)cc1)NC(=O)CCC(=O)O)C(=O)O [LBQ657, (2R,4S)-5-biphenyl-4-yl-4-(3-carboxy-propionylamino)-2-methyl-pentanoic acid] | 0.95 | 0.98 | 0.98 | 0.81 | 1.02 | 1.02 | 0.99 | 1.01 | 1.01 | 19% | comparable
